Experimental data reported in patent publication US11590139B2, “Substituted aminopurine compounds, compositions thereof, and methods of treatment therewith” (Signal Pharmaceuticals, LLC, priority 2014, dated 2023).

Test system: Lox-IMVI melanoma cell line
Assay: Lox-IMVI anti-proliferative assay (growth inhibition, Cell Titer-Glo)
Type: cell-based, human
Conditions: Homo sapiens; IC50 activity level in the cell-based Lox-IMVI anti-proliferative assay; read-out: Activity
Method: Determination of the Growth Inhibitory Effect of Aminopurine Compounds. The Lox-IMVI melanoma cell line (Source: NCI-DCTD, catalog No. 0507283) was maintained and tested in RPMI+10% FBS. The seeding density for the cell line was optimized to ensure assay linearity in 384-well plates.
Increasing concentrations of Aminopurine Compound (0.5 nM to 10 μM) were spotted in a 10-point serial dilution fashion (3-fold dilution) in duplicate within the plate via an acoustic dispenser (EDC ATS-100) into an empty 384-well plate. The dimethyl sulfoxide (DMSO) concentration was kept constant for a final assay concentration of 0.2% DMSO. Prior to testing, cells were grown and expanded in culture flasks to provide sufficient amounts of starting material. Cells were then diluted to their desired densities and added directly to the compound-spotted 384-well plates. Cells were allowed to grow for 72 hours in 5% CO2 at 37° C. At the time when exposure of cells to compound began (t0), initial cell number was assessed via a viability assay (Cell Titer-Glo) by quantifying the level of luminescence generated by adenosine-5′-triphosphate (ATP) present in viable cells. After 72 hours, cell viability of compound-treated cells was assessed via Cell Titer-Glo Luminescent Cell Viability Assay (Promega Corporation, Madison, Wis.) and read for luminescence.
All data was normalized and represented as a percentage of the DMSO-treated control cells after 72 h. Results were expressed as a IC50 value, which is the compound concentration required to inhibit 50% of the untreated control cells during the 72 hours of treatment.
A Four Parameter Logistic Model (Sigmoidal Dose-Response Model) was used to determine the compound's IC50. y=(A+((B−A)/(1+((C/x)^D))))
wherein: • A=YMin • B=YMax • C=EC50 • D=Hill Slope • IC50 is the compound concentration when Y=50% of DMSO control • Y=Luminescence unit
All inhibition curves were processed and evaluated using XLFit and Activity Base (IDBS).

IC50	SMILES
> 1000 nM	NC(=O)[C@H]1CC[C@@H](n2c(Nc3c(Cl)cc(Cl)cc3Cl)nc3cnc(NCC(F)(F)F)nc32)CC1 [Example 109, (1s,4s)-4-(8-(2,4,6-trichlorophenylamino)-2-(2,2,2-trifluoroethylamino)-9H-purin-9-yl)cyclohexanecarboxamide]
500 to 1000 nM	NC(=O)[C@H]1CC[C@@H](n2c(Nc3c(Cl)cc(Cl)cc3Cl)nc3cnc(NCC4CCC4)nc32)CC1 [Example 110, (1s,4s)-4-(2-(cyclobutylmethylamino)-8-(2,4,6-trichlorophenylamino)-9H-purin-9-yl)cyclohexanecarboxamide]
> 1000 nM	NC(=O)[C@H]1CC[C@@H](n2c(Nc3c(Cl)cc(Cl)cc3Cl)nc3cnc(N[C@@H]4CCCOC4)nc32)CC1 [Example 111, (1S,4s)-4-(2-((R)-tetrahydro-2H-pyran-3-ylamino)-8-(2,4,6-trichlorophenylamino)-9H-purin-9-yl)cyclohexanecarboxamide]
250 to 500 nM	NC(=O)[C@H]1CC[C@@H](n2c(Nc3ccc(Cl)c(Cl)c3F)nc3cnc(NC4CCOCC4)nc32)CC1 [Example 112, (1s,4s)-4-(8-(3,4-dichloro-2-fluorophenylamino)-2-(tetrahydro-2H-pyran-4-ylamino)-9H-purin-9-yl)cyclohexanecarboxamide]
500 to 1000 nM	NC(=O)[C@H]1CC[C@@H](n2c(Nc3c(Cl)ccc(F)c3F)nc3cnc(NC4CCOCC4)nc32)CC1 [Example 113, (1s,4s)-4-(8-(6-chloro-2,3-difluorophenylamino)-2-(tetrahydro-2H-pyran-4-ylamino)-9H-purin-9-yl)cyclohexanecarboxamide]
> 1000 nM	CS(=O)(=O)N1CCC(Nc2ncc3nc(Nc4c(F)cccc4Cl)n([C@H]4CC[C@@H](C(N)=O)CC4)c3n2)CC1 [Example 114, (1s,4s)-4-(8-(2-chloro-6-fluorophenylamino)-2-(1-(methylsulfonyl)piperidin-4-ylamino)-9H-purin-9-yl)cyclohexanecarboxamide]
500 to 1000 nM	Cc1cc(F)c(Nc2nc3cnc(NC4CCOCC4)nc3n2[C@H]2CC[C@@H](C(N)=O)CC2)c(F)c1 [Example 115, (1s,4s)-4-(8-(2,6-difluoro-4-methylphenylamino)-2-(tetrahydro-2H-pyran-4-ylamino)-9H-purin-9-yl)cyclohexanecarboxamide]
> 1000 nM	Cc1cc(Cl)c(Nc2nc3cnc(NC4CCOCC4)nc3n2[C@H]2CC[C@@H](C(N)=O)CC2)c(Cl)c1 [Example 116, (1s,4s)-4-(8-(2,6-dichloro-4-methylphenylamino)-2-(tetrahydro-2H-pyran-4-ylamino)-9H-purin-9-yl)cyclohexanecarboxamide]
500 to 1000 nM	NC(=O)[C@H]1CC[C@@H](n2c(Nc3c(F)cc(F)cc3Cl)nc3cnc(NC4CCC4)nc32)CC1 [Example 117, (1s,4s)-4-(8-(2-chloro-4,6-difluorophenylamino)-2-(cyclobutylamino)-9H-purin-9-yl)cyclohexanecarboxamide]
500 to 1000 nM	NC(=O)[C@H]1CC[C@@H](n2c(Nc3c(Cl)cc(F)cc3Cl)nc3cnc(NC4CCC4)nc32)CC1 [Example 118, (1s,4s)-4-(2-(cyclobutylamino)-8-(2,6-dichloro-4-fluorophenylamino)-9H-purin-9-yl)cyclohexanecarboxamide]
250 to 500 nM	NC(=O)[C@H]1CC[C@@H](n2c(Nc3c(F)cc(F)cc3Cl)nc3cnc(NC4CCCC4)nc32)CC1 [Example 119, (1s,4s)-4-(8-(2-chloro-4,6-difluorophenylamino)-2-(cyclopentylamino)-9H-purin-9-yl)cyclohexanecarboxamide]

The remaining lines, values behind:

SMILES	IC50
NC(=O)[C@H]1CC[C@@H](n2c(Nc3c(Cl)cc(Cl)cc3Cl)nc3cnc(NC4CCS(=O)(=O)CC4)nc32)CC1 [Example 92, (1s,4s)-4-(2-((1,1-dioxidotetrahydro-2H-thiopyran-4-yl)amino)-8-((2,4,6-trichlorophenyl)amino)-9H-purin-9-yl)cyclohexane-1-carboxamide]	> 1000 nM
NC(=O)[C@H]1CC[C@@H](n2c(Nc3ccccc3Cl)nc3cnc(NC4CCCC4)nc32)CC1 [Example 93, (1s,4s)-4-(8-(2-chlorophenylamino)-2-(cyclopentylamino)-9H-purin-9-yl)cyclohexanecarboxamide]	> 1000 nM
NC(=O)[C@H]1CC[C@@H](n2c(Nc3ccc(Cl)cc3Cl)nc3cnc(NC4CCCC4)nc32)CC1 [Example 94, (1s,4s)-4-(2-(cyclopentylamino)-8-(2,4-dichlorophenylamino)-9H-purin-9-yl)cyclohexanecarboxamide]	> 1000 nM
NC(=O)[C@H]1CC[C@@H](n2c(Nc3ccc(Cl)cc3F)nc3cnc(NC4CCCC4)nc32)CC1 [Example 95, (1s,4s)-4-(8-(4-chloro-2-fluorophenylamino)-2-(cyclopentylamino)-9H-purin-9-yl)cyclohexanecarboxamide]	> 1000 nM
CC(C)Nc1ncc2nc(Nc3ccc(Cl)cc3Cl)n([C@H]3CC[C@@H](C(N)=O)CC3)c2n1 [Example 96, (1s,4s)-4-(8-(2,4-dichlorophenylamino)-2-(isopropylamino)-9H-purin-9-yl)cyclohexanecarboxamide]	> 1000 nM
CC(C)Nc1ncc2nc(Nc3ccc(F)cc3Cl)n([C@H]3CC[C@@H](C(N)=O)CC3)c2n1 [Example 97, (1s,4s)-4-(8-(2-chloro-4-fluorophenylamino)-2-(isopropylamino)-9H-purin-9-yl)cyclohexanecarboxamide]	> 1000 nM
CC(C)Nc1ncc2nc(Nc3c(F)ccc(F)c3F)n([C@H]3CC[C@@H](C(N)=O)CC3)c2n1 [Example 98, (1s,4s)-4-(2-(isopropylamino)-8-(2,3,6-trifluorophenylamino)-9H-purin-9-yl)cyclohexanecarboxamide]	> 1000 nM
CC(C)Nc1ncc2nc(Nc3c(F)cc(Cl)cc3Cl)n([C@H]3CC[C@@H](C(N)=O)CC3)c2n1 [Example 99, (1s,4s)-4-(8-(2,4-dichloro-6-fluorophenylamino)-2-(isopropylamino)-9H-purin-9-yl)cyclohexanecarboxamide]	250 to 500 nM
NC(=O)[C@H]1CC[C@@H](n2c(Nc3cc(F)c(F)cc3Cl)nc3cnc(NC4CCOCC4)nc32)CC1 [Example 100, (1s,4s)-4-(8-(2-chloro-4,5-difluorophenylamino)-2-(tetrahydro-2H-pyran-4-ylamino)-9H-purin-9-yl)cyclohexanecarboxamide]	> 1000 nM
Cc1cc(Cl)c(Nc2nc3cnc(NC4CCOCC4)nc3n2[C@H]2CC[C@@H](C(N)=O)CC2)cc1C [Example 101, (1s,4s)-4-(8-(2-chloro-4,5-dimethylphenylamino)-2-(tetrahydro-2H-pyran-4-ylamino)-9H-purin-9-yl)cyclohexanecarboxamide]	> 1000 nM
Cc1c(Cl)ccc(Nc2nc3cnc(NC4CCOCC4)nc3n2[C@H]2CC[C@@H](C(N)=O)CC2)c1F [Example 102, (1s,4s)-4-(8-(4-chloro-2-fluoro-3-methylphenylamino)-2-(tetrahydro-2H-pyran-4-ylamino)-9H-purin-9-yl)cyclohexanecarboxamide]	> 1000 nM
Cc1cc(Cl)cc(Cl)c1Nc1nc2cnc(NC3CCOCC3)nc2n1[C@H]1CC[C@@H](C(N)=O)CC1 [Example 103, (1s,4s)-4-(8-(2,4-dichloro-6-methylphenylamino)-2-(tetrahydro-2H-pyran-4-ylamino)-9H-purin-9-yl)cyclohexanecarboxamide]	> 1000 nM
NC(=O)[C@H]1CC[C@@H](n2c(Nc3c(F)ccc(Cl)c3Cl)nc3cnc(NC4CCOCC4)nc32)CC1 [Example 104, (1s,4s)-4-(8-(2,3-dichloro-6-fluorophenylamino)-2-(tetrahydro-2H-pyran-4-ylamino)-9H-purin-9-yl)cyclohexanecarboxamide]	250 to 500 nM
NC(=O)[C@H]1CC[C@@H](n2c(Nc3cc(F)c(Cl)cc3Cl)nc3cnc(NC4CCOCC4)nc32)CC1 [Example 105, (1s,4s)-4-(8-(2,4-dichloro-5-fluorophenylamino)-2-(tetrahydro-2H-pyran-4-ylamino)-9H-purin-9-yl)cyclohexanecarboxamide]	> 1000 nM
Cc1cc(F)c(Nc2nc3cnc(NC4CCOCC4)nc3n2[C@H]2CC[C@@H](C(N)=O)CC2)cc1F [Example 106, (1s,4s)-4-(8-(2,5-difluoro-4-methylphenylamino)-2-(tetrahydro-2H-pyran-4-ylamino)-9H-purin-9-yl)cyclohexanecarboxamide]	> 1000 nM
NC(=O)[C@H]1CC[C@@H](n2c(Nc3c(F)cccc3Cl)nc3cnc(NC4CCN(c5cccnc5)CC4)nc32)CC1 [Example 107, (1s,4s)-4-(8-(2-chloro-6-fluorophenylamino)-2-(1-(pyridin-3-yl)piperidin-4-ylamino)-9H-purin-9-yl)cyclohexanecarboxamide]	> 1000 nM
NC(=O)[C@H]1CC[C@@H](n2c(Nc3c(F)cccc3Cl)nc3cnc(NC4CCN(c5ccccc5)CC4)nc32)CC1 [Example 108, (1s,4s)-4-(8-(2-chloro-6-fluorophenylamino)-2-(1-phenylpiperidin-4-ylamino)-9H-purin-9-yl)cyclohexanecarboxamide]	> 1000 nM
